The text below walks through data of patent US7375243B2, “Method for preparation of amino acid chelate” (MD Bioalpha Co., Ltd., priority 2002, dated 2008).

One data set deals with calcium-starved rats. The data set is described as follows: Test of the degree of absorption of Ca-supplying agents in calcium-starved rats. The following applies: for Length of fibula / Weight of fibula: Ca-starved rats, Ca-supplying agent orally for one week with Ca-free diet. As to the method: 3-week old Sprague-Dawley male rats (Daehan Biolink Co., Ltd., Korea) were employed for the present experiment after adjustment to an elementary diet These rats were divided into a normal group and an experimental group. The diet for the normal group (“normal diet”) was prepared based upon AIN-76 diet composition, whereas the diet for the experimental group (“Ca-flee diet” or “experimental diet”) was prepared by replacing a mineral mixture in the normal diet composition with a Ca deficient mineral mixture. […] These Ca-supplying agents were orally administered to each group along with the Ca-free diet for one week before the rats were sacrificed.
The concentration of Ca-supplying agent in the oral administration was ⅓ of the concentration of calcium in AIN-76 mineral mixture, which corresponds to 10 times the recommended amount for adult males. 3× distilled water was used for preparation of the experimental diet and was also was fed to rats for maintenance. The compositions of diets administered to the normal group and experimental groups, respectively, are described in TABLE 8 as below.
The abdomens of the rats were cut open under ether anesthesia, then blood was harvested from abdominal aorta, and major organs such as liver, kidney, spleen, etc. were […], followed by the extraction of fibula. The blood was centrifuged at 3000 rpm for 10 minutes to separate serum. Each organ and bone was trimmed and washed with normal saline and moisture on the surface thereof was removed to measure the weight and length thereof.
The content of calcium in serum and urine was measured by Calcium Reagent Arsenazo III kit (Sigma Corp., U.S.A). In order to measure the content of calcium in feces, the feces (sample) was put in a Pyrex beaker and the weight thereof was measured to 0.1 mg unit, then 5 ml of HNO3 and 2 ml of H2O2 were added and the beaker was left uncovered on a hot plate. The acid-digested sample was cooled and 2 ml of H2O2 was added thereto, followed by heating. Next, the acid was sufficiently volatilized to make the concentration of HNO3 to 1-5%, followed by the analysis with ICP-AES (inductively Coupled Plasma Atomic Emission Spectrometer). The condition for analysis is given below. • Model: Jobin Yvon 138 Ultrace • Source: Argon plasma (6000 K) • Spectral range: 160-800 nm • Resolution: 0.005 nm (UV) • Detection limit: 1×ppb˜100×ppb • Wavelength for analysis: 393.366 nm 3. Effect On Weight of Major Organs

Data set [1] can be described thus: Stability of amino acid chelate on storage in aqueous solutions. Format: physicochemical. The conditions noted are these: distilled water and buffer at pH 3, 5, 7, 9, commercial beverages, cosmetics, ALGI; stored at 4, 25 and 50° C. for 3 months. As to the method:
The following experiment was carried out to ascertain the stability of amino acid chelate compound, obtained in EXAMPLE 1, on its storage in an aqueous solution for a long time.
• 1) preparation of samples by adding the above amino acid chelate compound into distilled water adjusted to pH 3, 5, 7 and 9, respectively. • 2) preparation of samples by adding the above amino acid chelate compound into solutions adjusted to pH 3, 5, 7 and 9 using buffer, respectively. • 3) preparation of samples by adding the above amino acid chelate compound into selected commercially available beverages (MIEROFIBER® (Hyundai Pharm., Korea), BACCHUS® (Donga Pharm., Korea) and orange juice (HaeTae Beverage Corp., Korea)), respectively. • 4) preparation of samples by adding the above amino acid chelate compound into selected commercially available cosmetics (ISA KNOX® (LG Chemical Corp., Korea), MAMONDE® (AmorePacific Corp., Korea)) • 5) preparation of samples by adding the above amino acid chelate compound into ALGI® (GG Tech. Co. Ltd., Korea) as a plant growth-accelerating agent
The above samples were stored at 4, 25 and 50° C., respectively, and then tested for any precipitation or change in pH. […]

The subject of a further data set is Fe-starved rats. The data set is described as follows: Effect of Fe-supplying agents on the absorption of Fe in Fe-starved rats. As to the method: 3-week old Sprague-Dawley male rats (Daehan Biolink Co., Ltd., Korea) were employed for the present experiment after application of an elementary diet for one week. These rats were divided into a normal group and an experimental group. The diet for the normal group (“normal diet”) was prepared based upon AIN-76 diet composition, whereas the diet for the experimental group (“Fe-free diet” or “experimental diet”) was prepared by replacing a mineral mixture in the normal diet composition with a Fe-deficient mineral mixture. […] These Fe-supplying agents were orally administered to rats along with the experimental diet for one week before the rats were sacrificed.
The concentration of Fe-supplying agent for the oral administration was 10 times the recommended amount for adult males. 3× distilled water was used for preparation of the experimental diet and was fed to rats for maintenance. The compositions of diets administered to the normal group and experimental group, respectively, are described in TABLE 14 below.
Rats were adapted to a cage for one week before the start of the experiment, and their feces were collected for a final 3 days. On the final day, the abdomen was cut open under ether anesthesia, then blood was harvested from abdominal aorta, and major organs such as liver, kidney, spleen, etc. were extracted. […] Each organ was trimmed and washed with normal saline, then moisture on the surface thereof was removed to measure the weight and length.
CBC (Complete Blood Count: Red blood cell; RBC, white blood cell; WBC, Hematocrits; HCT, Hemoglobin; Hb) was measured from the anticoagulated blood, and IRON and TIBC Total Iron Binding Capacity) were measured from the blood serum. CBC was measured by an automatic analyzer (ADVIA 120, Bayer, U.S.A). As reagents, Isoton III (Beckman Coulter, U.S.A), Coulter clenz (Beckman Coulter), Lyse S III (Beckman Coulter), 4% sodium hypochloride-solution (Beckman Coulter) and 4C-plus (Beckman Coulter), Scatter Pak (Beckman Coulter) were used.
All data obtained in the present experiment were expressed with the mean standard error using the SAS program. T-test in each group was carried out at a range of P<0.05 by Duncan's multiple comparison test.

The mark [2] stands for this setting: Fe-starved rats, oral for one week.

calcium-aspartic acid chelate [Asp-Ca]: in the data set with calcium-starved rats, the Length of fibula is given as 30.88 ± 1.87 mm and the Weight of fibula was 0.327 ± 0.031 g.
Take “Seaweed Calcium-Glutamic Acid Chelate [EXAMPLE 1]”: the “precipitation or change in pH” value in data set [1] is recorded as “no precipitation or remarkable change in pH”.
Take `O=C([O-])[O-].[Ca+2]` [CaCO3]: in the data set on calcium-starved rats, the Length of fibula amounted to 30.03 ± 1.10 mm and the Weight of fibula is reported as 0.332 ± 0.033 g. Besides, in the data set with calcium-starved rats (rat, in vivo, po), the “Concentration of calcium in serum” value is 9.13 ± 0.21 mg/dL, the “Concentration of calcium in urine” value came out at 0.22 ± 0.01 mg/dL, the “Concentration of serum-calcium in blood collected from eyeball” value is 8.52 ± 0.27 mg/dL and the Kidney weight worked out at 8.60 ± 0.40 mg/BW. The Spleen weight with calcium-starved rats (rat, in vivo, po) is given as 3.00 ± 0.00 mg/BW.
As to seaweed calcium [SW-Ca], in the data set on calcium-starved rats (rat, in vivo, po), the “Concentration of calcium in serum” value was 10.44 ± 0.07 mg/dL, the “Concentration of calcium in urine” value was 0.32 ± 0.02 mg/dL, the Kidney weight stood at 8.20 ± 0.20 mg/BW and the Spleen weight was 3.00 ± 0.32 mg/BW.
As for iron-aspartic acid chelate [Fe-Asp], in the data set on Fe-starved rats (setting [2]), the RBC is given as 7.32 ± 0.35 ×10^6/mm^3, the “TIBC (total iron binding capacity) in serum” value was found to be 735.44 ± 9.30 µg/dL and the WBC was 6.02 ± 0.46 ×10^3/mm^3.
For the compound Heme iron, in the data set on Fe-starved rats (setting [2]), the HCT came out at 36.11 ± 0.89%, the RBC is on record as 7.01 ± 0.16 ×10^6/mm^3, the “TIBC (total iron binding capacity) in serum” value was found to be 824.63 ± 11.60 µg/dL and the “TS (transferrin saturation)” value is given as 17.07%. Moreover, in the data set on Fe-starved rats (setting [2]), the WBC is given as 6.12 ± 0.37 ×10^3/mm^3. Moreover, in the data set on Fe-starved rats (rat, in vivo, po), the IRON in serum is reported as 140.8. ± 25.55 μg/dl, the Kidney weight is given as 7.20 ± 0.13 mg/BW and the Spleen weight came to 2.78 ± 0.15 mg/BW.
